Measured values: paper PMC4064249, “Differences in proton pumping and Na/H exchange at the leaf cell tonoplast between a halophyte and a glycophyte” (AoB Plants, 2014)
Like-named read-outs stand apart in the source and are kept apart here.

Legend:
[1] = test system: T1, V-H+-PPase; settings: PPi 0.005-[…], […] MgCl2, 100 mM KCl, MOPS-TRIS pH 7.0, 22 °C, corrected for vesicle orientation
T1 construct: gene VHP1
Description: PPi-dependent H+ transport, ACMA fluorescence quenching, Michaelis-Menten fit on V-H+-PPase | Kinetic analysis was performed by fitting a Michaelis–Menten curve through the data points

[2] = test system: T2, V-H+-ATPase; settings: ATP 0.05-1.5 mM, […] MgCl2, 100 mM KCl, MOPS-TRIS pH 7.0, 22 °C; control plants (10 mM NaCl); corrected for vesicle orientation
T2 construct: gene VHA-A
Description: ATP-dependent H+ transport, ACMA fluorescence quenching, Michaelis-Menten fit on V-H+-ATPase | Kinetic analysis was performed by fitting a Michaelis–Menten curve through the data points

Row | Km ([1]; control plants (0 mM NaCl)) [µM] | Km ([1]; control plants (10 mM NaCl)) [µM] | Km [2] [µM] | Compound
1 | 43 ± 24 | 34 ± 14 | – | O=P(O)(O)OP(=O)(O)O [pyrophosphate]
2 | – | – | 250 ± 110 | Nc1ncnc2c1ncn2[C@@H]1O[C@H](COP(=O)(O)OP(=O)(O)OP(=O)(O)O)[C@@H](O)[C@H]1O [ATP]
